US9938249B2, “Anti-amyloid compounds containing benzofurazan” (Treventis Corporation, priority 2014, dated 2018)

Experiments:
Aβ40 = Aβ40 (Homo sapiens, UniProt P05067); assay: ThT Aβ aggregation assay (kinetic Thioflavin T fluorescence); type: biochemical; conditions: compound 3 μm (so in the source); 20 μM Aβ; DMSO control at 80 hr = 0% inhibition; number in parenthesis = compound ID 1027 in that experiment
Experimental: Preparation of Aβ40 Stock Solutions
Aβ40 (1.0 mg) was pre-treated in a 1.5 mL microfuge tube with HFIP (1 mL) and sonicated for 20 min to disassemble any pre-formed Aβ aggregates. The HFIP was removed with a stream of argon and the Aβ dissolved in Tris base (5.8 mL, 20 mM, pH ˜10). The pH was adjusted to 7.4 with concentrated HCl (˜10 μL) and the solution filtered using a syringe filter (0.2 μm) before being used.
The kinetic ThT assay for Aβ aggregation is similar to that of Chalifour et al (Chalifour et al, 2003, J. Biol. Chem. 278:34874-81). Briefly, pre-treated Aβ40 or Aβ42 (40 μM in 20 mM Tris, pH 7.4) was diluted with an equal volume of 8 μM Thioflavin T (ThT) in Tris (20 mM, pH 7.4, 300 mM NaCl). Aliquots of Aβ/ThT (200 μL) were added to wells of a black polystyrene 96-well plate, followed by 2 μL of a compound in DMSO (variable concentration), or DMSO alone (controls). Incubations were performed in triplicate and were taken to contain 20 μM Aβ, various concentration of compound in 20 mM Tris, pH 7.4, 150 mM NaCl, 1% DMSO. Plates were covered with clear polystyrene lids and incubated at 37° C. in a Tecan Genios microplate reader.
Analysis of ThT and ThS Aggregation Assays
Fluorescence readings (λex=450 nm, λem=480 nm) were taken every 15 min., after first shaking at high intensity for 15 s and allowing to settle for 10 s before each reading. Active compounds attenuated the increase in fluorescence over time that occurred in controls. In FIGS. 1-7, the time this procedure was performed extended to 80 hours (rightmost part of X-axis), at which point fluorescence increase generally reached an asymptote. Applying a definition of DMSO control at 80 hr as 100% aggregation (0% inhibition) and DMSO control at 0 hr as 0% aggregation (100% inhibition), a % inhibition score where higher is better can be calculated for a given concentration of compound. By repeating this procedure over several concentrations, a […] (IC50) can be measured, as is given in the table below for some compounds.

[1] = target: Terminally biotinylated beta-amyloid (Aβ42) (Homo sapiens, UniProt P05067); assay: Aβ42 biotinylated (biotin-AB) oligomerization assay, NeutrAvidin capture ELISA; type: biochemical; conditions: approximate value; 1 hr oligomerization at room temperature; read-out: IC50 Aβ 42-bio
Experimental: Aβ42 Biotinylated Assay Terminally biotinylated beta-amyloid (biotin-AB) was dissolved in HFIP at the concentration of 1 mg/ml and aliquoted to 50 μl/tube in 0.65 ml colored microfuge tubes (Fisher 02-681-248). The aliquots were diluted immediately by adding 450 μl of HFIP to 0.1 mg/ml. Approximately 46 ul (containing approximately 4.6 ug of biotin-AB) were taken from a tube, 100 ul of HFIP added, vortexed, and dried to a thin film under an N2 stream. 100 μl of trifluoroacetic acid (TFA) was added and vortexed. After 10 minute incubation at room temperature in a hood, resulting in disaggregation of seeds, the sample was vortexed again and dried again to a thin film under an N2 stream. 100 μl of HFIP was added, mixed, and the biotin-AB sample was dried for a third time under an N2 stream to remove residual TFA. The treated biotin-AB was dissolved in DMSO to a final peptide concentration of […] (SOX). An ELISA “capture” plate (Costar 9018) was coated with 50 μl of 1 μg/ml NeutrAvidin™ (NA) in 10 mM sodium phosphate buffer, pH 7.5. (NeutrAvidin can be prepared as 1 mg/ml (1000×) in milliQ water/10% glycerol and stored at −80° C. before use.) The plate was sealed plate with adhesive film and stored at 4° C. overnight, then blocked for 2 hours (unsealed) at room temperature with 200 μl/well OFB+0.1% v/v Tween 20. The “capture” plate was allowed to come to room temperature. Several dilutions of test compound were prepared with 100% DMSO, according to the desired concentration to be tested. 2.5 μl of diluted test compound was pipetted into the bottom of each well of a 96-well “dilution” polypropylene plate (Costar 3365), to which was added 250 ul of Oligomer Formation Buffer (OFB: 20 mM sodium phosphate, pH 7.5-150 mM NaCl). To begin oligomerization, 2 μl/well of the biotin-AB was added to the bottom of each well of a 96-well “reaction” polypropylene plate (Costar 3365) and 100 ul of each well of the “dilution” plate was transferred to the “reaction” plate (final concentration of DMSO being up to 1%). The reaction plate was sealed and incubated for 1 hr at room temperature without shaking. The reaction was then stopped by the addition of 50 ul of 0.3% Tween 20 in water. The “capture” plate blocking solution was removed, and 50 ul of each well of the “reaction” plate was transferred to each well of the “capture” plate. The “capture” plate was sealed and incubated for 2 hours at room temperature with shaking at 150 rpm. The “capture” plate was then washed on a plate washer (3×) with 200 ul/well TBST (20 mM Tris-HCL, pH 7.5/150 mM NaCl/0.1% Tween 20). 50 ul of Streptavidin-horseradish […] (1:20,000 dilution) in OFB+0.1% Tween 20 was added to each well, the “capture” plate was sealed and incubated for 1 hr with shaking at 150 rpm. As before, the plate was washed, then 100 ul of TMB/H2O2 substrate solution was added to each well. After 5-10 minutes, 100 ul of 1% v/v sulfuric acid was added and the absorbance of each well was read at 450 nm using a standard plate reader. Data is summarized in the table below; numbers given in parenthesis for the Aβ 40 Thioflavin T assays are the values in that particular experiment for compound ID 1027, given as the first entry in this table for structural comparison. “IC50 Aβ42-bio” column refers to the approximate value of the Aβ42 biotinylated assay IC50 in micromoles/L.

Terminally biotinylated beta-amyloid (Aβ42), sequence (P05067 672-713, species assumed): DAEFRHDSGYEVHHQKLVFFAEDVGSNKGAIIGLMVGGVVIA
Aβ40, sequence (P05067 672-711, species assumed): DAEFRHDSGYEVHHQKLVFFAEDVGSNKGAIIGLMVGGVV

| Structure (SMILES) | % inhib Thioflavin T Aβ 40 (3 μm) (Aβ40) [%] | IC50 [1] [µM] |
| --- | --- | --- |
| OC(c1cccc(-c2cc(N3CCC3)c3nonc3c2)c1)C(F)(F)F (centres unmarked) [compound 1432] | 23 | – |
| OC(c1ccnc(-c2cc(N3CC(CN4CCOCC4)C3)c3nonc3c2)c1)C(F)(F)F (centres unmarked) [compound 1620, 2,2,2-trifluoro-1-(2-(7-(3-(morpholinomethyl)azetidin-1-yl)benzo[c][1,2,5]oxadiazol-5-yl)pyridin-4-yl)ethan-1-ol] | – | 11.1 |
| OC(c1cncc(-c2cc(N3CC(CN4CCOCC4)C3)c3nonc3c2)c1)C(F)(F)F (centres unmarked) [compound 1621, 2,2,2-trifluoro-1-(5-(7-(3-(morpholinomethyl)azetidin-1-yl)benzo[c][1,2,5]oxadiazol-5-yl)pyridin-3-yl)ethan-1-ol] | – | 16.7 |
| OC(c1ccc(-c2cc(N3CC(CN4CCOCC4)C3)c3nonc3c2)nc1)C(F)(F)F (centres unmarked) [compound 1622, 2,2,2-trifluoro-1-(6-(7-(3-(morpholinomethyl)azetidin-1-yl)benzo[c][1,2,5]oxadiazol-5-yl)pyridin-3-yl)ethan-1-ol] | – | 5.8 |
| OC(c1cnc(-c2cc(N3CC(CN4CCOCC4)C3)c3nonc3c2)s1)C(F)(F)F (centres unmarked) [compound 1625] | – | 4.2 |
| OC(c1csc(-c2cc(N3CC(CN4CCOCC4)C3)c3nonc3c2)n1)C(F)(F)F (centres unmarked) [compound 1626] | – | 10.9 |
| OC(c1nc(-c2cc(N3CC(CN4CCOCC4)C3)c3nonc3c2)cs1)C(F)(F)F (centres unmarked) [compound 1627] | – | 10.4 |
| OCc1nc(-c2cc(N3CC(CN4CCOCC4)C3)c3nonc3c2)no1 [compound 1629] | – | 15.7 |
| OC1(c2ccc(-c3cc(N4CC(CN5CCOCC5)C4)c4nonc4c3)cc2)COC1 [compound 1639] | – | 3.2 |
| FC(F)(F)c1nc(-c2cc(N3CC(CN4CCOCC4)C3)c3nonc3c2)no1 [compound 1643, 4-(3-(morpholinomethyl)azetidin-1-yl)-6-(5-(trifluoromethyl)-1,2,4-oxadiazol-3-yl)benzo[c][1,2,5]oxadiazole] | – | 14.2 |
| CC(C)(O)/C=C/c1cc(N2CC(CN3CCOCC3)C2)c2nonc2c1 [compound 1645, (E)-2-methyl-4-(7-(3-(morpholinomethyl)azetidin-1-yl)benzo[c][1,2,5]oxadiazol-5-yl)but-3-en-2-ol] | – | > 20 |
| Cn1ncc(-c2cc(N3CC(CN4CCOCC4)C3)c3nonc3c2)c1C(O)C(F)(F)F (centres unmarked) [compound 1647] | – | 14.7 |
| Cn1ncc(C(O)C(F)(F)F)c1-c1cc(N2CC(CN3CCOCC3)C2)c2nonc2c1 (centres unmarked) [compound 1651] | – | 30.1 |
| OC1(c2ccccc2-c2cc(N3CC(CN4CCOCC4)C3)c3nonc3c2)COC1 [compound 1663] | – | > 20 |
| OC(/C=C/c1cc(N2CC(CN3CCOCC3)C2)c2nonc2c1)C(F)(F)F (centres unmarked) [compound 1665, (E)-1,1,1-trifluoro-4-(7-(3-(morpholinomethyl)azetidin-1-yl)benzo[c][1,2,5]oxadiazol-5-yl)but-3-en-2-ol] | – | 21.8 |
| OC(c1ncoc1-c1cc(N2CC(CN3CCOCC3)C2)c2nonc2c1)C(F)(F)F (centres unmarked) [compound 1667] | – | 17.5 |
| COc1ccc(-c2cc(N3CC(CN4CCOCC4)C3)c3nonc3c2)cn1 [compound 1670, 6-(6-methoxypyridin-3-yl)-4-(3-(morpholinomethyl)azetidin-1-yl) benzo[c][1,2,5]oxadiazole] | – | 11.2 |
| OC(c1ncc(-c2cc(N3CC(CN4CCOCC4)C3)c3nonc3c2)o1)C(F)(F)F (centres unmarked) [compound 1677] | – | 26.1 |
| OC1(c2cc(N3CC(CN4CCOCC4)C3)c3nonc3c2)CC(OCc2ccccc2)C1 (centres unmarked) [compound 1692, 3-(benzyloxy)-1-(7-(3-(morpholinomethyl)azetidin-1-yl)benzo[c][1,2,5]oxadiazol-5-yl) cyclobutan-1-ol] | – | 5.6 |
| OC1(c2ccc(-c3cc(N4CCC(N5CCOCC5)C4)c4nonc4c3)cc2)COC1 (centres unmarked) [compound 1719] | – | 13 |
| CC(=O)NC1CCN(c2cc(-c3ccc(C4(O)COC4)cc3)cc3nonc23)CC1 [compound 1735] | – | 2.4 |

Now from value to compound:

| % inhib Thioflavin T Aβ 40 (3 μm) (Aβ40) [%] | IC50 [1] [µM] | Structure (SMILES) |
| --- | --- | --- |
| 26 | – | O=C(c1ccccc1)N1CCN(c2ccc([N+](=O)[O-])c(Nc3ccccc3)c2)CC1 [compound 1027, reference compound] |
| 52 | – | OCC1CN(c2cc(-c3cccc(C(O)C(F)(F)F)c3)cc3nonc23)C1 (centres unmarked) [compound 1428] |
| – | 33.1 | CC(C)(O)c1nc(-c2cc(N3CC(CN4CCOCC4)C3)c3nonc3c2)no1 [compound 1628] |
| – | 10.3 | OC(c1ccncc1-c1cc(N2CC(CN3CCOCC3)C2)c2nonc2c1)C(F)(F)F (centres unmarked) [compound 1636, 2,2,2-trifluoro-1-(3-(7-(3-(morpholinomethyl)azetidin-1-yl)benzo[c][1,2,5]oxadiazol-5-yl)pyridin-4-yl) ethan-1-ol] |
| – | 3 | OC1(c2cccc(-c3cc(N4CC(CN5CCOCC5)C4)c4nonc4c3)c2)COC1 [compound 1638] |
| – | > 20 | COc1ncccc1-c1cc(N2CC(CN3CCOCC3)C2)c2nonc2c1 [compound 1658, 6-(2-methoxypyridin-3-yl)-4-(3-(morpholinomethyl)azetidin-1-yl) benzo[c][1,2,5]oxadiazole] |
| – | 12.4 | COc1cc(-c2cc(N3CC(CN4CCOCC4)C3)c3nonc3c2)ccn1 [compound 1659, 6-(2-methoxypyridin-4-yl)-4-(3-(morpholinomethyl)azetidin-1-yl) benzo[c][1,2,5]oxadiazole] |
| – | 3.9 | COc1cc(-c2cc(N3CC(CN4CCOCC4)C3)c3nonc3c2)ccc1C1CC1 [compound 1660, 6-(4-cyclopropyl-3-methoxyphenyl)-4-(3-(morpholinomethyl)azetidin-1-yl) benzo[c][1,2,5]oxadiazole] |
| – | > 20 | CC(C)(O)C1CC1c1cc(N2CC(CN3CCOCC3)C2)c2nonc2c1 (centres unmarked) [compound 1666, 2-(2-(7-(3-(morpholinomethyl)azetidin-1-yl)benzo[c][1,2,5]oxadiazol-5-yl)cyclopropyl)propan-2-ol] |
| – | 22.6 | OC1(c2ccc(-c3cc(N4CCC(N5CCOCC5)CC4)c4nonc4c3)cc2)COC1 [compound 1717] |
| – | 9.7 | OC1(c2ccc(-c3cc(N4CCC(CN5CCOCC5)CC4)c4nonc4c3)cc2)COC1 [compound 1736] |
